Entries after “also recorded” stand apart in the source; their conditions may differ.
Legend:
[1] = tested on: cisplatin-induced nephrotoxicity in Wistar-Kyoto (WKY) rats; assay: Cisplatin-induced nephrotoxicity in rats; assay type: in vivo, rat
From the text: Experiments were approved and carried out according to the guidelines of the Institutional Animal Care and Use Committee, Medical College of Wisconsin, Milwaukee, USA. Male Wistar-Kyoto (WKY) rats weighing 180-200 g (Charles River, Mass., USA). All animals were kept in a temperature-controlled environment with a 12-h light/dark cycle and were allowed free access to food and water at all times. An acclimatization period of 6 days was allowed for the rats before experimentation. The rats were assigned into four groups. […] Rats received drinking water ad libitum for seven days and on day 7 DMSO (Sigma Aldrich, St. Louis, Mo., USA) was administered (300-500 μl i.p.). […] These rats are pretreated with the EET analog […].) for seven days in drinking water and then on day 7 administered CP as a single injection (7 mg/kg i.p.) followed by another five days treatment with EET-A. […] One day before the rats were sacrificed, urine of each rat was collected over a 24-h period, and the volume was measured. Five days after CP or DMSO administration, rats were anesthetized for blood sample collection followed by euthanasia and tissue collection. Urine and plasma samples were kept frozen at -80° C. until analyzed. The kidneys were removed, washed with physiological saline and stored at -80° C. until used for RT-PCR analysis, thiobarbituric acid reactive substance (TBARS) measurement and caspase 3 activity assay. […] The levels of blood urea nitrogen (BUN) (BioAssay Systems, Hayward, Calif., USA) and serum creatinine (Cayman Chemical Company, Ann Arbor, Mich., USA) were measured spectrophotometrically using commercial kits. Urinary content of creatinine and protein were measured using commercial kits (Cayman Chemical Company, Ann Arbor, Mich., USA), and the activity of urinary N-acetyl-b-glucosaminidase (NAG) in the urine was measured by a kit from Diazyme (Diazyme Laboratories, Poway, Calif., USA). While urine content of kidney injury molecule-1 (KIM-1) was measured using ELISA (R&D Systems, Inc. Minneapolis, Minn., USA). Malondialdehyde (MDA) is a thiobarbituric acid reactive substance (TBARS) that is formed as an end-product of lipid peroxidation and serves as an important index of oxidative stress. […] Using a commercially available kit (Cayman Chemical Company, Ann Arbor, Mich., USA), MDA was measured spectrophotometrically after reaction with thiobarbituric acid. […] Louis, Mo., USA). Kidney homogenate was prepared with a lysis Buffer (50 mM HEPES, pH 7.4, with 5 mM CHAPS and 5 mM DTT). […] The caspase 3 activity is expressed as nmol of AMC/min/μL. Real-Time analysis was carried out to assess the expression of oxidative (gp91phox, NOX1, SOD1, SOD2, SOD3), inflammatory (TNF-α, IL-6, apoptotic (Bax, Bak, Bcl-2) and endoplasmic reticulum stress (GRP78, caspase 12) related genes in the kidney. Total RNA was isolated from kidney homogenate using TRIzol LS reagents (Invitrogen Life Technologies, Carlsbad, Calif., USA) according to the manufacturer's instructions. The isolated RNA was treated with RNase-free DNase (Invitrogen, Carlsbad, Calif., USA) to remove traces of genomic DNA contamination. The mRNA samples were quantified by spectrophotometry at 260 nm and 1 μg of total RNA was reverse-transcribed to cDNA using iScriptTM Select cDNA Synthesis Kit (Bio-Rad, Hercules, Calif., USA). The target gene expression was quantified by iScript One-Step RT-PCR Kit with SYBR green using MyiQTM Single Color Real-Time PCR Detection System (Bio-Rad Laboratories, Hercules, Calif., USA). Each amplified sample in all wells was analyzed for homogeneity using dissociation curve analysis using iQ5 Optical System Software, Version 2.1 (Bio-Rad Laboratories, Hercules, Calif., USA). […] In analyzing the relative expression of the target genes, the Ct values were normalized to a housekeeping gene (pgk1). Statistical analyses were carried out for at least 5-7 experimental samples in each experimental group. Primers used in this study were designed based on several earlier reports. […]

[2] = tested on: Hela, NCCIT and U87 cancer cell lines; assay: Cell viability by alamar blue assay in cancer cell lines; assay type: cell-based, human; conditions: 72 h
Procedure: (§1) In this study, HEK293, U87MG, Hela cell-lines were obtained from the ATCC (Manassas, Va., USA) (HEK293, U87MG, Hela), and NCCIT was collected from Department of Pediatrics, UT Southwestern Medical Center at Dallas, Tex., USA. All cell lines were maintained in DMEM or RPIM with 10% fetal bovine serum and penicillin/streptomycin purchased from Life Technologies (Grand Island, N.Y., USA). Cisplatin was purchased from either Sigma (St. Louis, Mo., USA) or CalBiochem/EMD Biosciences (Billerica, Mass., USA). Cells were seeded in 96-well plates at 500 to 4,000 cells per well depends on cell type. […] Cell viability was measured by alamar blue assay using resazurin (Sigma Aldrich) according to the manufacturer's guidelines. Viability results were measured by fluorescence/absorbance in a 96-well plate reader from BMG Labtech (Cary, N.C., USA) and the IC50 was calculated by GraphPad Prism5 software (GraphPad Software Inc, La Jolla, Calif., USA).

[3] = tested on: NCCIT cells; assay: Cell viability by alamar blue assay, cisplatin with concurrent EET-A; assay type: cell-based, human; conditions: concurrent application of EET-A and cisplatin; NCCIT cancer cell line
Procedure: as §1

**Q.** Which results are given for “Disodium (S)-2-(13-(3-pentylureido)tridec-8(Z)-enamido)succinate [EET-A]”?
**A.** BUN ([1]; 10 mg/kg/d p.o., cisplatin 7 mg/kg i.p., day 5 after cisplatin, vehicle 241±51): 108 ± 30 mg/dL; plasma creatinine (PCr) ([1]; 10 mg/kg/d p.o., day 5 after cisplatin, vehicle 3.1±0.2): 2.0 ± 0.2 mg/dL; kidney TBARS formation ([1]; 10 mg/kg/d p.o., vehicle 16±2): 7 ± 1 µmol/g; reductions in renal mRNA expressions of inflammatory markers (TNF-α, IL-6, interleukin-1β) ([1]; cisplatin-administered rats): 40-60%; proteinuria ([1]; cisplatin-administered rats, vehicle 53±5): 33 ± 8 mg/day; reductions in the elevated levels of serum creatinine and BUN ([1]; five days after cisplatin, vs. vehicle): 30-50%; NAG ([1]; urinary, 10 mg/kg/d p.o., vehicle 3.0±0.6): 0.5±0.1 U/d; KIM-1 ([1]; urinary, 10 mg/kg/d p.o., vehicle 296±94): 85 ± 29 ng/day; reduction in urinary excretion of NAG and KIM-1 ([1]; vs. cisplatin rats treated with vehicle): 30-50%; reduction of cisplatin-induced proteinuria ([1]; vs. vehicle): ≥ 40%; reduction in elevated renal expressions of GRP78 and caspase 12 mRNAs ([1]; vs. vehicle treatment): 2-4 fold; decrease in kidney expression of NOX1 and gp91phox mRNAs ([1]; vs. vehicle-treated cisplatin rats): 2-3 folds; effect on cell number / growth [2]: no observable effects; also recorded: no effect; influence on cisplatin's chemotherapeutic effect [3]: did not influence
